From ChEMBL document CHEMBL6087420, “Synthesis and pharmacodynamic evaluation of 2-aminoindole derivatives against influenza A virus in vitro/vivo” (Eur J Med Chem, 2025)
Activity calls are given as the source filed them. No cut-off for these calls is given here.

Experiments:
[1] = Toxicity in healthy BALB/c mouse assessed as change in blood indicators at 25 to 100 mg/kg administered through gavage for 6 days; assay type: organism-based; conditions: in vivo, po, 144 h, dose 25-100 mg/kg, time 6 day
[2] = test system: Influenza A virus; assay: Antiviral activity against influenza A virus infected in human A549 cells assessed as inhibition of IFN-gamma expression by qRT-PCR analysis; assay type: functional, organism-based
[3] = test system: Influenza A virus; assay: Inhibition of influenza A virus infection induced apoptosis in MDCK cells infected with influenza virus assessed as late apoptotic cells at 25 uM incubated for 36 hrs by AnnexinV-FITC/PI staining based flow cytometry (reference value: 13.2%); assay type: functional; parameters: scale not given: the % may be the effect or the level left
[4] = test system: Influenza A virus; assay: Antiviral activity against influenza A virus infected in human A549 cells assessed as inhibition of IL-6 expression by qRT-PCR analysis; assay type: functional, organism-based
[5] = test system: Influenza A virus; assay: Inhibition of influenza A virus infection induced apoptosis in MDCK cells infected with influenza virus assessed as necrotic cells at 50 uM incubated for 36 hrs by AnnexinV-FITC/PI staining based flow cytometry (reference value: 1.79%); assay type: functional; parameters: scale not given: the % may be the effect or the level left
[6] = test system: Influenza A virus; assay: Antiviral activity against influenza A virus H1N1 infected in MDCK cells assessed as decrease in virus infection-induced cytopathic effect; assay type: functional, organism-based
[7] = Cytotoxicity against dog MDCK cells after 72 hrs incubation by MTT assay; assay type: toxicity, cell-based, Canis lupus familiaris
[8] = test system: Influenza A virus; assay: Antiviral activity against influenza A virus infected in human A549 cells assessed as inhibition of IRF3 expression by qRT-PCR analysis; assay type: functional, organism-based
[9] = test system: Influenza A virus; assay: In vivo antiviral activity against influenza A virus infected in BALB/c mouse assessed as reduction in iNOS mRNA level in lung at 25 to 100 mg/kg measured after 6 dpi; assay type: functional, organism-based; conditions: dose 25-100 mg/kg
[10] = test system: Influenza A virus; assay: Inhibition of influenza A virus infection induced apoptosis in MDCK cells assessed as late apoptotic cells at 100 uM incubated for 36 hrs by AnnexinV-FITC/PI staining based flow cytometry (reference value: 0.70%); assay type: functional; parameters: scale not given: the % may be the effect or the level left
[11] = test system: Influenza A virus; assay: Inhibition of influenza A virus infection induced apoptosis in MDCK cells infected with influenza virus assessed as late apoptotic cells at 50 uM incubated for 36 hrs by AnnexinV-FITC/PI staining based flow cytometry (reference value: 13.2%); assay type: functional; parameters: scale not given: the % may be the effect or the level left
[12] = test system: Influenza A virus; assay: Inhibition of influenza A virus infection induced apoptosis in MDCK cells assessed as necrotic cells at 100 uM incubated for 36 hrs by AnnexinV-FITC/PI staining based flow cytometry (reference value: 0.74%); assay type: functional; parameters: scale not given: the % may be the effect or the level left
[13] = test system: Influenza A virus; assay: Antiviral activity against influenza A virus infected in A549 cells assessed as decrease in IAV-M2 mRNA level measured after 1 to 3 days of viral infection; assay type: functional, organism-based; conditions: time 1-3 day
[14] = test system: Influenza A virus; assay: In vivo antiviral activity against influenza A virus infected in BALB/c mouse assessed as reduction in lung index at 25 to 100 mg/kg; assay type: functional, organism-based; conditions: dose 25-100 mg/kg
[15] = test system: Influenza A virus; assay: Antiviral activity against influenza A virus H1NI (A/Weiss/43) infected in human A549 cells assessed as reduction in IAV-NP mRNA by qRT-PCR assay; assay type: functional, organism-based
[16] = test system: Influenza A virus; assay: In vivo antiviral activity against influenza A virus infected in BALB/c mouse assessed as reduction in IRF3 mRNA level in lung at 25 to 100 mg/kg measured after 6 dpi; assay type: functional, organism-based; conditions: dose 25-100 mg/kg
[17] = test system: MDCK; assay: Inhibition of influenza virus infection induced mitochondrial membrane potential loss in MDCK cells infected with influenza virus assessed as decrease in green fluorescence at 25 to 100 uM by JC-1 probe based confocal microscopy; assay type: functional, cell-based; conditions: Influenza A virus, dose 25-100 µM
[18] = Toxicity in healthy BALB/c mouse assessed as pathological change in liver at 25 to 100 mg/kg administered through gavage for 6 days; assay type: organism-based; conditions: in vivo, po, 144 h, dose 25-100 mg/kg, time 6 day
[19] = test system: Influenza A virus; assay: Antiviral activity against influenza A virus H1NI (A/Weiss/43) virus infected in dog MDCK cells assessed as viral inhibition treated after 2 hrs of viral infection measured at 72 hrs incubation by MTT assay; assay type: functional
[20] = test system: Influenza A virus; assay: Antiviral activity against influenza A virus infected in human A549 cells assessed as inhibition of RIG-1 expression by qRT-PCR analysis; assay type: functional, organism-based
[21] = test system: Influenza A virus; assay: In vivo antiviral activity against influenza A virus infected in BALB/c mouse assessed as reduction in apoptotic cells at 25 to 100 mg/kg measured after 6 dpi by TUNEL assay; assay type: functional, organism-based; conditions: dose 25-100 mg/kg
[22] = test system: Influenza A virus; assay: In vivo antiviral activity against influenza A virus infected in BALB/c mouse assessed as reduction in TLR-3 mRNA level in lung at 25 to 100 mg/kg measured after 6 dpi; assay type: functional, organism-based; conditions: dose 25-100 mg/kg
[23] = test system: Influenza A virus; assay: Antiviral activity against influenza A virus H1NI (A/Weiss/43) infected in MDCK cells assessed as reduction in IAV-NP mRNA by qRT-PCR assay; assay type: functional, organism-based
[24] = test system: Influenza A virus; assay: In vivo antiviral activity against influenza A virus infected in BALB/c mouse assessed as reduction in TNF-alpha mRNA level in lung at 25 to 100 mg/kg measured after 6 dpi; assay type: functional, organism-based; conditions: dose 25-100 mg/kg
[25] = test system: Influenza A virus; assay: Anti-influenza activity against influenza A virus H1NI (A/Weiss/43) infected in dog MDCK cells assessed as virus inhibition rate incubated for 72 hrs by MTT assay; assay type: functional, organism-based
[26] = test system: Influenza A virus; assay: Inhibition of influenza A virus infection induced apoptosis in MDCK cells infected with influenza virus assessed as viable cells at 25 uM incubated for 36 hrs by AnnexinV-FITC/PI staining based flow cytometry (reference value: 66.9%); assay type: functional
[27] = test system: Influenza A virus; assay: In vivo antiviral activity against influenza A virus infected in BALB/c mouse assessed as reduction in IL-6 mRNA level in lung at 25 to 100 mg/kg measured after 6 dpi; assay type: functional, organism-based; conditions: dose 25-100 mg/kg
[28] = Toxicity in healthy BALB/c mouse assessed as pathological change in colon at 25 to 100 mg/kg administered through gavage for 6 days; assay type: organism-based; conditions: in vivo, po, 144 h, dose 25-100 mg/kg, time 6 day
[29] = test system: Influenza A virus; assay: Antiviral activity against influenza A virus infected in human A549 cells assessed as inhibition of MAVS expression by qRT-PCR analysis; assay type: functional, organism-based
[30] = test system: Influenza A virus; assay: Inhibition of influenza A virus infection induced apoptosis in MDCK cells infected with influenza virus assessed as viable cells at 100 uM incubated for 36 hrs by AnnexinV-FITC/PI staining based flow cytometry (reference value: 66.9%); assay type: functional
[31] = Selectivity index, ratio of CC50 for dog MDCK cells to EC50 for antiviral activity against Influenza A virus H1N1 (A/Weiss/43) infected in MDCK cells; assay type: toxicity, cell-based; conditions: read-out: Ratio CC50/EC50
[32] = test system: Influenza A virus; assay: In vivo antiviral activity against influenza A virus infected in BALB/c mouse assessed as reduction in IAV-M2 mRNA level in lung at 25 to 100 mg/kg measured after 6 dpi; assay type: functional, organism-based; conditions: dose 25-100 mg/kg
[33] = test system: Influenza A virus; assay: Inhibition of influenza A virus infection induced apoptosis in MDCK cells infected with influenza virus assessed as decrease in cleaved caspase 3 at 25 to 100 uM incubated for 36 hrs by Western blot analysis; assay type: functional, organism-based; conditions: dose 25-100 µM
[34] = test system: Influenza A virus; assay: Antiviral activity against influenza virus infected in A549 cells assessed as inhibition in inflammatory cell invasion; assay type: functional, organism-based
[35] = test system: Influenza A virus; assay: Inhibition of influenza A virus infection induced apoptosis in MDCK cells infected with influenza virus assessed as necrotic cells at 100 uM incubated for 36 hrs by AnnexinV-FITC/PI staining based flow cytometry (reference value: 1.79%); assay type: functional; parameters: scale not given: the % may be the effect or the level left

## COc1ccc2c(c1)c(-c1ccccc1)c(NS(C)(=O)=O)n2S(=O)(=O)c1ccc(C)cc1
[1]
  Activity: Non-toxic
[2]
  Activity: Active
[3]
  Activity: 9.29%
[4]
  Activity: Active
[5]
  Activity: 1.25%
[6]
  Activity: Active
[7]
  CC50 at 72 h: 669 µM
[8]
  Activity: Active
[9]
  Activity: Active
[10]
  Activity: 0.83%
[11]
  Activity: 4.07%
[12]
  Activity: 1.78%
[13]
  Activity: Active
[14]
  Activity: Active
[15]
  Activity: Active
[16]
  Activity: Active
[17]
  inhibition: Active
[18]
  Activity: Non-toxic
[19]
  inhibition (INH): 87.37%
[20]
  Activity: Active
[21]
  Activity: Active
[22]
  Activity: Active
[23]
  Activity: Active
[24]
  Activity: Active
[25]
  EC50: 8.37 µM
[26]
  Activity: 71.9%
[27]
  Activity: Active
[28]
  Activity: Non-toxic
[29]
  Activity: Active
[30]
  Activity: 92.8%
[31]
  selectivity ratio: 80
[32]
  Activity: Active
[33]
  Activity: Active
[34]
  Activity: Active
[35]
  Activity: 1.74%
